Values of other authors in paper PMC6347699 (Proceedings of the National Academy of Sciences of the …, 2019).
“Also recorded” adds a separate entry of the source. Ends that are not written are not given here.

How the values were obtained:
[1] = harsh denaturing conditions
[2] = test system: Gram-negative enterobacteria; conditions: range of Gram-negative enterobacteria

Substance | inhibition of Eco RNAP (Eco RNAP) | inhibition of RNAP backtracking (RNAP backtracking) | mode of inhibition with respect to NTPs (Eco RNAP) | Ki (Eco RNAP; read-out: Ki, inhibition of Eco RNAP in in vitro transcription reactions) [µM] | stability of structure and activity [1] | antimicrobial properties [2]
acinetodin [reference compound] | inhibit Eco RNAP | – | – | – | – | –
klebsidin [reference compound] | inhibit Eco RNAP | – | – | – | – | –
microcin J25 (GGAGHVPEYFVGIGTPISFYG; ends and bridges not checked; UniProt Q9X2V7 38-58, looked up) [MccJ25] | – | inhibit RNAP backtracking | partially competitive; also recorded: partial competitive | ~1 | stable to harsh denaturing conditions | antimicrobial properties against a range of Gram-negative enterobacteria
